Here are results for 5 compounds from ChEMBL document CHEMBL3351582, “A simple, general approach of allosteric coagulation enzyme inhibition through monosulfated hydrophobic scaffolds” (Bioorg Med Chem Lett, 2014).

pIC50: −log10 of the molar value.

In general, pIC50 refers to the negative decadic logarithm of the IC50, by convention in mol/L.

Assay [1] concerns the target Coagulation factor X (Homo sapiens, UniProt P00742). The experiment in a line: Inhibition of human factor 10a by spectrophotometric assay. The note with it: for pIC50: read-out: IC50.
Assay [2] deals with Prothrombin (Homo sapiens, UniProt P00734). Nature of the assay: Inhibition of human thrombin using spectrozyme TH as substrate by spectrophotometric assay.
The target in assay [3] is Coagulation factor XI (Homo sapiens, UniProt P03951). Nature of the assay: Inhibition of human factor 11a by spectrophotometric assay. The conditions noted are these: for pIC50: read-out: IC50.
A short description of assay [4]: Anticoagulant activity in human […] assessed as concentration required to double activated partial thromboplastin time. The format is functional.
Assay [5] can be described thus: Anticoagulant activity in human […] assessed as concentration required to double prothrombin time. The class given is functional.

Chain of Coagulation factor X (P00742 41-179 limits assumed): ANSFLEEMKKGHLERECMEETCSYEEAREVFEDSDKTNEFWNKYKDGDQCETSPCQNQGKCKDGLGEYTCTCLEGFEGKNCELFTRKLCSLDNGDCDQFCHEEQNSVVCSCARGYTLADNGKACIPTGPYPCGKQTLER
Chain of Coagulation factor X (P00742 235-488 limits assumed): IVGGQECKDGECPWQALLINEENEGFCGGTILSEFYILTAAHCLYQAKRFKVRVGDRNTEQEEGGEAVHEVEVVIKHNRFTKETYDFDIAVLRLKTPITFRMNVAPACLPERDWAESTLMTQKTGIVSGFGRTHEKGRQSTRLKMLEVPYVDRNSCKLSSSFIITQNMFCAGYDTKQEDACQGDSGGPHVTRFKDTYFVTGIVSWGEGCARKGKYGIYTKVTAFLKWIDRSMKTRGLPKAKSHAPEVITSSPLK
Chain of Coagulation factor XI (P03951 19-387 limits assumed): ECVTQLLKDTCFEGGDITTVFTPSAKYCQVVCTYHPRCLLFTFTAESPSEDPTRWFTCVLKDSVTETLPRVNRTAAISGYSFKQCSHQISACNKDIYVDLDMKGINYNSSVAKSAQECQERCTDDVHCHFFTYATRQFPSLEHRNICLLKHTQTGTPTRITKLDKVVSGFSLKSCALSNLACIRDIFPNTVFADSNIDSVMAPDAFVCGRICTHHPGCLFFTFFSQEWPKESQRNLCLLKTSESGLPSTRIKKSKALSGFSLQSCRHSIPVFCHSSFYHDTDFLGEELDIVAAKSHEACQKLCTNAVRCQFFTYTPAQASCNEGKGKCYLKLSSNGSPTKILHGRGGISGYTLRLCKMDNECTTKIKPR
Chain of Coagulation factor XI (P03951 388-625 limits assumed): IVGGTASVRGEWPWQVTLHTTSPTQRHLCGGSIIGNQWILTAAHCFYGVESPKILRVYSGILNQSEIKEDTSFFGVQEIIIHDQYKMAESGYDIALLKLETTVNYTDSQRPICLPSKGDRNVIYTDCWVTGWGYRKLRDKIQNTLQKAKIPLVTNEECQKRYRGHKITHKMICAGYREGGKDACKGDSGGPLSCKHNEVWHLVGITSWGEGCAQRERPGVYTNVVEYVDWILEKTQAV

For `COc1cc2occ(C(=O)OC(C)(C)C)c2cc1OCc1nc2ccc(OS(=O)(=O)O)cc2s1`, the results for the pIC50 in assay [1], in assay [2] and in assay [3] were 3.45, 3.84 and 3.91, respectively.
As for `Cc1nc2ccc(OCc3nc4ccc(OS(=O)(=O)[O-])cc4s3)cc2s1.[Na+]`, the IC50 entry in assay [1] and in assay [3] was “Not Active” each time. In assay [2], the negative-log IC50 (pIC50) was 3.49.
`CCOC(=O)c1c(COc2cc3c(C(=O)OCC)c(Cc4ccccc4)oc3cc2OC)[nH]c2ccc(OS(=O)(=O)[O-])cc12.[Na+]`: the pIC50 is 3.71 in assay [1], 3.49 in assay [2] and 3.93 in assay [3]. In addition, the 2aPTT in assay [4] worked out at 1021 µM. Moreover, the 2PT in assay [5] came out at 2361 µM.
For `CCOC(=O)c1c(C)[nH]c2ccc(OCc3c(C(=O)OCC)c4cc(OS(=O)(=O)[O-])ccc4n3C(=O)OC(C)(C)C)cc12.[Na+]` the same measures were 3.64, 3.37, 3.66, 424 µM and 1475 µM.
`CCOC(=O)c1c(COc2cc3c(C(=O)OCC)c(COc4cc5c(C(=O)OCC)c(C)oc5cc4OC)oc3cc2OC)[nH]c2ccc(OS(=O)(=O)[O-])cc12.[Na+]`: the pIC50 in assay [1] was 3.46; in assay [2] it was 3.52; in assay [3] it was 4.06. Moreover, in assay [4], the 2aPTT amounted to 755 µM. In assay [5], the 2PT came to 845 µM.
